Measured values taken from US9023821B2, “Use of MicroRNA for treating diseases associated with a dysfunction of the cilia in multiciliated epithelial cells” (Centre National de la Recherche Scientifique, priority 2009, dated 2015).

Key:
[1] = tested on: human airway epithelial cells (HAECs); assay: High-throughput sequencing (HTS) of miRNAs at four stages of differentiation of HAECs; conditions: for Modulation (ratio of the level of intensity of expression in log2 in two stages of differentiation) measured by high-throughput sequencing, D7 − D0 / Modulation (ratio of the level of intensity of expression in log2 in two stages of differentiation) measured by high-throughput sequencing, FC − D7 / Modulation (ratio of the level of intensity of expression in log2 in two stages of differentiation) measured by high-throughput sequencing, WD − D0 / Modulation (ratio of the level of intensity of expression in log2 in two stages of differentiation) measured by high-throughput sequencing, WD − FC / Level of intensity of expression in log2 measured by high-throughput sequencing, D0 / Level of intensity of expression in log2 measured by high-throughput sequencing, D7 / Level of intensity of expression in log2 measured by high-throughput sequencing, FC / Level of intensity of expression in log2 measured by high-throughput sequencing, WD: Table VI; for Level of intensity of expression in log2 At the differentiated stage (WD) measured in HTS: healthy human airway epithelial tissue; for Level of intensity of expression in log2 measured by high-throughput sequencing, D0: stage D0; for Level of intensity of expression in log2 measured by high-throughput sequencing, D7: stage D7; for Level of intensity of expression in log2 measured by high-throughput sequencing, FC: stage FC; for Level of intensity of expression in log2 At the differentiated stage (WD) measured in HTS / Level of intensity of expression in log2 measured by high-throughput sequencing, WD: stage WD
Summary of the method: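 Cells at four air-liquid interface differentiation stages were lysed and total RNA with miRNAs purified. Adaptor Mix A or B ligation (16° C, 2-16 h) allowed 5′ or 3′ end sequencing. Abundance cut-off was 1% of total miRNAs in at least one stage.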

[2] = tested on: human airway epithelial cells (HAECs); assay: Agilent miRNA chips, miRNA expression at four stages of differentiation of HAECs; conditions: for Modulation (ratio of the level of intensity of expression in log2 in two stages of differentiation) measured with the Agilent chips, D7 − D0 / Modulation (ratio of the level of intensity of expression in log2 in two stages of differentiation) measured with the Agilent chips, FC − D7 / Modulation (ratio of the level of intensity of expression in log2 in two stages of differentiation) measured with the Agilent chips, WD − D0 / Modulation (ratio of the level of intensity of expression in log2 in two stages of differentiation) measured with the Agilent chips, WD − FC / Level of intensity of expression in log2 measured with the Agilent chips, D0 / Level of intensity of expression in log2 measured with the Agilent chips, D7 / Level of intensity of expression in log2 measured with the Agilent chips, FC / Level of intensity of expression in log2 measured with the Agilent chips, WD: Table VI; for Modulation (ratio of the level of intensity of expression in log2 at two stages of differentiation), FC − D7 / Modulation (ratio of the level of intensity of expression in log2 at two stages of differentiation), WD − FC: Agilent miRNA chips, Table V; for Level of intensity of expression in log2 measured with the Agilent chips, D0: stage D0; for Level of intensity of expression in log2 measured with the Agilent chips, D7: stage D7; for Level of intensity of expression in log2 measured with the Agilent chips, FC: stage FC; for Level of intensity of expression in log2 measured with the Agilent chips, WD: stage WD
Summary of the method: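 To benchmark sequencing, the microRNAome was also profiled by hybridizing labelled RNA from identical patient samples to v2 arrays with miRBase v.12.0 human content (866 miRNAs) and 89 viral miRNAs.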

[3] = tested on: basal cells and pyramidal cells of the airway epithelium; assay: miRNA expression in sorted basal cells versus pyramidal cells (ciliated + secretory), HTS and Agilent chips; design: species or system human; conditions: for Modulation of expression of the miRNAs in pyramidal cells (323(−)) relative to basal cells 323(+): HTS and Agilent chips; for Intensity of the level of expression in log2 in pyramidal cells (323(−)): pyramidal cells (ciliated + secretory)
Summary of the method: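 Read-out is miRNA profiling of total RNA, by Agilent chips or by high-throughput sequencing, in two sorted populations. These were basal cells (CD151+/TF+) and pyramidal ciliated/secretory cells (CD151−/TF−) from airway epithelium of 3 donors.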

Substance | Modulation (ratio of the level of intensity of expression in log2 in two stages of differentiation) measured by high-throughput sequencing, D7 − D0 [1] | Modulation (ratio of the level of intensity of expression in log2 in two stages of differentiation) measured by high-throughput sequencing, FC − D7 [1] | Modulation (ratio of the level of intensity of expression in log2 in two stages of differentiation) measured by high-throughput sequencing, WD − D0 [1] | Modulation (ratio of the level of intensity of expression in log2 in two stages of differentiation) measured by high-throughput sequencing, WD − FC [1] | Level of intensity of expression in log2 At the differentiated stage (WD) measured in HTS [1] | Level of intensity of expression in log2 measured by high-throughput sequencing, D0 [1] | Level of intensity of expression in log2 measured by high-throughput sequencing, D7 [1] | Level of intensity of expression in log2 measured by high-throughput sequencing, FC [1] | Level of intensity of expression in log2 measured by high-throughput sequencing, WD [1] | Modulation (ratio of the level of intensity of expression in log2 in two stages of differentiation) measured with the Agilent chips, D7 − D0 [2] | Modulation (ratio of the level of intensity of expression in log2 at two stages of differentiation), FC − D7 [2] | Modulation (ratio of the level of intensity of expression in log2 in two stages of differentiation) measured with the Agilent chips, FC − D7 [2] | Modulation (ratio of the level of intensity of expression in log2 in two stages of differentiation) measured with the Agilent chips, WD − D0 [2] | Modulation (ratio of the level of intensity of expression in log2 at two stages of differentiation), WD − FC [2] | Modulation (ratio of the level of intensity of expression in log2 in two stages of differentiation) measured with the Agilent chips, WD − FC [2] | Level of intensity of expression in log2 measured with the Agilent chips, D0 [2] | Level of intensity of expression in log2 measured with the Agilent chips, D7 [2] | Level of intensity of expression in log2 measured with the Agilent chips, FC [2] | Level of intensity of expression in log2 measured with the Agilent chips, WD [2] | Modulation of expression of the miRNAs in pyramidal cells (323(−)) relative to basal cells 323(+) [3] | further results
hsa-miR-106b: human miRNA, SEQ ID No. 2 (UAAAGUGCUGACAGUGCAGAU; expressed or natural sequence; listed as Homo sapiens) | 1.33 log2 | −0.28 log2 | 0.96 log2 | −0.09 log2 | 5.39 log2 | 4.43 log2 | 5.76 log2 | 5.48 log2 | 5.39 log2 | 1.39 log2 | −0.53 log2 | −0.53 log2 | 0.69 log2 | −0.18 log2 | −0.18 log2 | 8.08 log2 | 9.47 log2 | 8.94 log2 | 8.77 log2 | −2.05 | Intensity of the level of expression in log2 in basal cells (323(+)) [3]: 7.22 log2; Intensity of the level of expression in log2 in pyramidal cells (323(−)) [3]: 5.16 log2
hsa-miR-125a-5p: human miRNA, SEQ ID No. 3 (UCCCUGAGACCCUUUAACCUGUGA; expressed or natural sequence; listed as Homo sapiens) | 0.64 log2 | −0.27 log2 | 1.16 log2 | 0.79 log2 | 14.08 log2 | 12.92 log2 | 13.55 log2 | 13.29 log2 | 14.08 log2 | 1.29 log2 | −0.46 log2 | −0.46 log2 | 0.79 log2 | −0.04 log2 | −0.04 log2 | 7.37 log2 | 8.66 log2 | 8.20 log2 | 8.15 log2 | −0.05 | Modulation (ratio of the level of intensity of expression in log2 in two stages of differentiation), D7 − D0 ([1]; HTS): 0.64 log2; Modulation (ratio of the level of intensity of expression in log2 in two stages of differentiation), FC − D7 ([1]; HTS): −0.27 log2; Modulation (ratio of the level of intensity of expression in log2 in two stages of differentiation), WD − FC ([1]; HTS): 0.79 log2; Abundance (%), D0 ([1]; HTS, ALI-D0): 1.69%; Abundance (%), D7 ([1]; HTS, ALI-D7): 2.64%; Abundance (%), FC ([1]; HTS, ALI-FC): 2.13%; Abundance (%), WD ([1]; HTS, ALI-WD): 2.79%; Intensity of the level of expression in log2 in basal cells (323(+)) [3]: 6.63 log2; Intensity of the level of expression in log2 in pyramidal cells (323(−)) [3]: 6.58 log2
